Laboratory results: patent US20250197409A1, “BIFUNCTIONAL COMPOUND AND PHARMACEUTICAL COMPOSITION COMPRISING THE BIFUNCTIONAL COMPOUND, AND METHOD FOR TREATING ANDROGEN RECEPTOR RELATED DISEASE BY USING THE SAME” (ANHORN MEDICINES CO., LTD., priority 2022, published 2025)
Read-outs that look alike come from different tables or passages of the source.

Assays:
[1] = test system: Androgenetic Alopecia (AGA) Mice Model; experiment: In vivo hair regrowth efficacy in androgenetic alopecia (AGA) mice model; details: DHT pre-treated male C57BL/6 mice, topical 3.5 μg/cm2/day once daily, day 20; DHT+vehicle group 3.5
Protocol: Seven-week old male C57BL/6 mice (with black fur) purchased from BioLASCO Taiwan Co., Ltd. were grouped 6 to 8 mice per cage, and intraperitoneally administered with dihydrotestosterone (DHT) (1 mg/day, dissolved in corn oil) or corn oil alone once daily for four days. DHT is an agonist to androgen receptors, which can be used to induce symptoms of androgenetic alopecia.
Four days later, the dorsal region of the mice was depilated with hair removal cream (Nair Sensitive Hair Removal Cream, 100 mg to 200 mg per mouse). After hair removal, the skin color was recorded by photographs with a resolution of 4032*3024 pixel (day 1, D1). On the next day (D2), the test solutions of the compound 29 and compound 33 in a vehicle were prepared (3.5 μg/cm^2/day), and each test solution or vehicle alone was topically administered on the depilated region once daily for 20 days. The hair removal cream, the test solution and the vehicle were separately rubbed into the dorsal region of mice. The photographs underwent analysis using a self-developed software that utilized auto-image segmentation, primarily focusing on the border of the depilation area. This segmentation process involved classifying different regions within the images. […] The hair regrowth efficacy could be evaluated by the photographs and/or the skin color score.

androgen receptor = biological target: T1, androgen receptor (Homo sapiens, UniProt P10275, T878A); experiment: Androgen receptor degradation assay using Western blot analysis; format: cell-based
T1 construct: host or cells: LNCaP.FGC
In short: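 LNCaP.FGC cells (2×10^5/well) treated with 10-fold serial dilutions in RPMI from 100 nM stock; untreated cells as negative control. AR Western signal normalized to GAPDH, expressed as % remaining versus untreated (100%). DC50 derived from calibration curve of serial dilutions.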

[2] = 24 h, read-out: Androgen Receptor Remaining (%), LNCaP.FGC cells, 100 nM, 24 hr, normalized to GAPDH, untreated cells = 100%
[3] = read-out: AR DC50 (concentration needed for 50% AR degradation); LNCaP.FGC cells, serial 10x dilutions from 100 nM
[4] = LNCaP.FGC cells, serial 10x dilutions from 100 nM; read-out: AR DC50 (concentration needed for 50% AR degradation)

T1 sequence (P10275 whole entry T878A): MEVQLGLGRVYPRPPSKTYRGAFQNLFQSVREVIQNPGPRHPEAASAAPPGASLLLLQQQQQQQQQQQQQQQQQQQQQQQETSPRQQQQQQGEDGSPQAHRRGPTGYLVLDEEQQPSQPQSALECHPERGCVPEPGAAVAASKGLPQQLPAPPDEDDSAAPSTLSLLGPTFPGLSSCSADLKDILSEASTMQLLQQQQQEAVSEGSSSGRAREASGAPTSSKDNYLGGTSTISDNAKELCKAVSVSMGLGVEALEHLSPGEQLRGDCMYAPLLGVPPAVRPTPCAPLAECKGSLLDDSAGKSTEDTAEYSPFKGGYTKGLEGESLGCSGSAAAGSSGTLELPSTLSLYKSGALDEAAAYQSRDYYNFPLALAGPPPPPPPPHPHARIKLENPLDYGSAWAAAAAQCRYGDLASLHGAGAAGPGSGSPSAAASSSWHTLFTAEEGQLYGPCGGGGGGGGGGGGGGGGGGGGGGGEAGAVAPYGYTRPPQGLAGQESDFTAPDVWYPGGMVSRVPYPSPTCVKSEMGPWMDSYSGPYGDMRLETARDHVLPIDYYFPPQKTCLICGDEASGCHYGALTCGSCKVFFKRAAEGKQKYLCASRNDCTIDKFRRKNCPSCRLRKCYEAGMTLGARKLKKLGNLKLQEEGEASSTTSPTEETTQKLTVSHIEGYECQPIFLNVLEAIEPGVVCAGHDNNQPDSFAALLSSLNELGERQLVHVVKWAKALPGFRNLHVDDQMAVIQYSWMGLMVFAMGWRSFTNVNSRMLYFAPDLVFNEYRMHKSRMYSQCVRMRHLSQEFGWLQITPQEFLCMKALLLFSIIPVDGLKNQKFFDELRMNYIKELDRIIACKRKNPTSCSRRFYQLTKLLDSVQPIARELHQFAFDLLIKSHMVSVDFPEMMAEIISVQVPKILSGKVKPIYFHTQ
T1 sequence (Q96SW2 whole entry partner): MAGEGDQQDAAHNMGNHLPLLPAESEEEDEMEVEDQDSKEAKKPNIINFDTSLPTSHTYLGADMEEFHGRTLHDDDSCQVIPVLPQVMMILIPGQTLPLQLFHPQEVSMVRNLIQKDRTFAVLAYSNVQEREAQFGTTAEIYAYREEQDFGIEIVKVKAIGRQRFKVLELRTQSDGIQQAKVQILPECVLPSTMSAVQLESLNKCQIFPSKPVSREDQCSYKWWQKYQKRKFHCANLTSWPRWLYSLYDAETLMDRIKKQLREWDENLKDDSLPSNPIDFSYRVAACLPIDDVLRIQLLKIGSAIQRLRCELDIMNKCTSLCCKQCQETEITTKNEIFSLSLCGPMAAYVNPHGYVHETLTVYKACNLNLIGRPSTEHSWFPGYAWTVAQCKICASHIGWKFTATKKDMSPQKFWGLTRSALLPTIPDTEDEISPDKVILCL

SMILES | average skin color score (1 = depilated skin, 8 = fully regrown hair) [1] | remaining activity at 0.1 µM (androgen receptor; [2]) | DC50 (androgen receptor; [3]) | DC50 (androgen receptor; [4])
CCn1c2c(c3ccc(OCCCN4CCN(c5ccc(C(=O)N[C@H]6CC[C@H](Oc7ccc(C#N)c(Cl)c7)CC6)nn5)CC4)cc31)C(=O)N(C1CCC(=O)NC1=O)C2=O (stereo partly shown) [Compound 29] | 8 | 31% | 10 to 25 nM | 
CCn1c2c(c3ccc(OCCN4CCN(c5ccc(C(=O)N[C@H]6CC[C@H](Oc7ccc(C#N)c(Cl)c7)CC6)nn5)CC4)cc31)C(=O)N(C1CCC(=O)NC1=O)C2=O (stereo partly shown) [Compound 33] | 6.5 | 27% | 10 to 25 nM | 
Cn1c2c(c3ccc(OC4CCN(CC5CCN(c6ccc(C(=O)N[C@H]7C(C)(C)[C@H](Oc8ccc(C#N)c(Cl)c8)C7(C)C)cc6)CC5)CC4)cc31)C(=O)N(C1CCC(=O)NC1=O)C2=O (stereo partly shown) [Compound 219] |  |  |  | 25 to 100 nM
CCn1c2c(c3ccc(OCCCN4CCN(c5ncc(C(=O)N[C@H]6CC[C@H](Oc7ccc(C#N)c(Cl)c7)CC6)cn5)CC4)cc31)C(=O)N(C1CCC(=O)NC1=O)C2=O (stereo partly shown) [Compound 220] |  |  | 25 to 100 nM | 
Cn1c2c(c3ccc(OC4CCN(CC5CCN(c6ccc(C(=O)N[C@H]7C(C)(C)[C@H](Oc8ccc(C#N)c(Cl)c8)C7(C)C)nn6)CC5)CC4)cc31)C(=O)N(C1CCC(=O)NC1=O)C2=O (stereo partly shown) [Compound 221] |  |  |  | 10 to 25 nM
Cn1c2c(c3ccc(OC4CCN(CC5CCN(c6ccc(C(=O)N[C@H]7C(C)(C)[C@@H](Oc8ccc(C#N)c(Cl)c8)C7(C)C)cn6)CC5)CC4)cc31)C(=O)N(C1CCC(=O)NC1=O)C2=O (stereo partly shown) [Compound 222] |  |  |  | 10 to 25 nM
